Laboratory results taken from patent US20230085307A1, “PYRIDAZINONE COMPOUND AND HERBICIDE” (NISSAN CHEMICAL CORPORATION, priority 2019, published 2023).

Assays:
lambsquarters [1] = assay: Test Example 4: herbicidal effect by soil treatment (Table 19, symbol O); assay type: in vivo, lambsquarters (Chenopodium album); conditions: amount of applied herbicide 320 g/ha
How it was run: (§1)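 Herbicidal effect was rated 3 weeks after treatment, using the scoring criteria of an earlier test. The compound, formulated as an emulsion and diluted in water to a set herbicide amount, had been sprayed uniformly on soil over freshly sown seeds. Growth took place in a greenhouse at 25° C. to 30° C.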

wild oat [2] = assay: Test Example 5: herbicidal effect by foliage application, plastic box (Table 20, symbol I); assay type: in vivo, wild oat (Avena fatua); conditions: foliage application, 320 g/ha, evaluated three weeks after application
How it was run: (§2)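 Foliar spray test: emulsion formulation diluted in water to a set application rate, sprayed onto 14-day-old plants raised in diluvial soil at 25° C to 30° C under glass. Both herbicidal effect and crop effect rated visually three weeks later.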

southern crabgrass [3] = assay: Test Example 5: herbicidal effect by foliage application, plastic box (Table 20, symbol F); assay type: in vivo, southern crabgrass (Digitaria ciliaris); conditions: foliage application, 320 g/ha, evaluated three weeks after application
How it was run: as §2

green foxtail [4] = assay: Test Example 5: herbicidal effect by foliage application, plastic box (Table 20, symbol G); assay type: in vivo, green foxtail (Setaria viridis); conditions: foliage application, 320 g/ha, evaluated three weeks after application
How it was run: as §2

blackgrass [5] = assay: Test Example 4: herbicidal effect by soil treatment (Table 19, symbol J); assay type: in vivo, blackgrass (Alopecurus myosuroides); conditions: amount of applied herbicide 320 g/ha
How it was run: as §1

rice flat sedge = assay: Test Example 3: herbicidal effect by foliage application, Wagner pot (Table 18, symbol E); assay type: in vivo, rice flat sedge (Cyperus iria)
How it was run: (§3)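 Plants were sown in alluvial soil held under 0.1–0.5 cm standing water and grown 14 days in a greenhouse at 25–30 °C. An emulsifiable formulation, water-diluted to the set dose, was then sprayed onto the foliage, and effects were scored three weeks later using previously defined criteria.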

Chinese sprangletop = assay: Test Example 3: herbicidal effect by foliage application, Wagner pot (Table 18, symbol D); assay type: in vivo, chinese sprangletop (Leptochloa chinensis)
How it was run: as §3

green foxtail [6] = assay: Test Example 4: herbicidal effect by soil treatment (Table 19, symbol G); assay type: in vivo, green foxtail (Setaria viridis); conditions: amount of applied herbicide 320 g/ha
How it was run: as §1

windgrass [7] = assay: Test Example 5: herbicidal effect by foliage application, plastic box (Table 20, symbol L); assay type: in vivo, windgrass (Apera spica-venti); conditions: foliage application, 320 g/ha, evaluated three weeks after application
How it was run: as §2

velvetleaf [8] = assay: Test Example 5: herbicidal effect by foliage application, plastic box (Table 20, symbol M); assay type: in vivo, velvetleaf (Abutilon theophrasti); conditions: foliage application, 320 g/ha, evaluated three weeks after application
How it was run: as §2

false cleavers [9] = assay: Test Example 5: herbicidal effect by foliage application, plastic box (Table 20, symbol Q); assay type: in vivo, false cleavers (Galium spurium); conditions: foliage application, 320 g/ha, evaluated three weeks after application
How it was run: as §2

Italian ryegrass [10] = assay: Test Example 5: herbicidal effect by foliage application, plastic box (Table 20, symbol K); assay type: in vivo, Italian ryegrass (Lolium multiflorum); conditions: foliage application, 320 g/ha, evaluated three weeks after application
How it was run: as §2

lambsquarters [11] = assay: Test Example 5: herbicidal effect by foliage application, plastic box (Table 20, symbol O); assay type: in vivo, lambsquarters (Chenopodium album); conditions: foliage application, 320 g/ha, evaluated three weeks after application
How it was run: as §2

wild oat [12] = assay: Test Example 4: herbicidal effect by soil treatment (Table 19, symbol I); assay type: in vivo, wild oat (Avena fatua); conditions: amount of applied herbicide 320 g/ha
How it was run: as §1

chickweed [13] = assay: Test Example 5: herbicidal effect by foliage application, plastic box (Table 20, symbol P); assay type: in vivo, common chickweed (Stellaria media); conditions: foliage application, 320 g/ha, evaluated three weeks after application
How it was run: as §2

false cleavers [14] = assay: Test Example 4: herbicidal effect by soil treatment (Table 19, symbol Q); assay type: in vivo, false cleavers (Galium spurium); conditions: amount of applied herbicide 320 g/ha
How it was run: as §1

persian speedwell [15] = assay: Test Example 4: herbicidal effect by soil treatment (Table 19, symbol R); assay type: in vivo, Persian speedwell (Veronica persica); conditions: amount of applied herbicide 320 g/ha
How it was run: as §1

velvetleaf [16] = assay: Test Example 4: herbicidal effect by soil treatment (Table 19, symbol M); assay type: in vivo, velvetleaf (Abutilon theophrasti); conditions: amount of applied herbicide 320 g/ha
How it was run: as §1

persian speedwell [17] = assay: Test Example 5: herbicidal effect by foliage application, plastic box (Table 20, symbol R); assay type: in vivo, Persian speedwell (Veronica persica); conditions: foliage application, 320 g/ha, evaluated three weeks after application
How it was run: as §2

barnyard grass [18] = assay: Test Example 5: herbicidal effect by foliage application, plastic box (Table 20, symbol H); assay type: in vivo, barnyard grass (Echinochloa crus-galli); conditions: foliage application, 320 g/ha, evaluated three weeks after application
How it was run: as §2

windgrass [19] = assay: Test Example 4: herbicidal effect by soil treatment (Table 19, symbol L); assay type: in vivo, windgrass (Apera spica-venti); conditions: amount of applied herbicide 320 g/ha
How it was run: as §1

Italian ryegrass [20] = assay: Test Example 4: herbicidal effect by soil treatment (Table 19, symbol K); assay type: in vivo, Italian ryegrass (Lolium multiflorum); conditions: amount of applied herbicide 320 g/ha
How it was run: as §1

redroot pigweed [21] = assay: Test Example 5: herbicidal effect by foliage application, plastic box (Table 20, symbol N); assay type: in vivo, redroot pigweed (Amaranthus retroflexus); conditions: foliage application, 320 g/ha, evaluated three weeks after application
How it was run: as §2

chickweed [22] = assay: Test Example 4: herbicidal effect by soil treatment (Table 19, symbol P); assay type: in vivo, common chickweed (Stellaria media); conditions: amount of applied herbicide 320 g/ha
How it was run: as §1

barnyard grass [23] = assay: Test Example 4: herbicidal effect by soil treatment (Table 19, symbol H); assay type: in vivo, barnyard grass (Echinochloa crus-galli); conditions: amount of applied herbicide 320 g/ha
How it was run: as §1

barnyard grass [24] = assay: Test Example 3: herbicidal effect by foliage application, Wagner pot (Table 18, symbol H); assay type: in vivo, barnyard grass (Echinochloa crus-galli)
How it was run: as §3

redroot pigweed [25] = assay: Test Example 4: herbicidal effect by soil treatment (Table 19, symbol N); assay type: in vivo, redroot pigweed (Amaranthus retroflexus); conditions: amount of applied herbicide 320 g/ha
How it was run: as §1

blackgrass [26] = assay: Test Example 5: herbicidal effect by foliage application, plastic box (Table 20, symbol J); assay type: in vivo, blackgrass (Alopecurus myosuroides); conditions: foliage application, 320 g/ha, evaluated three weeks after application
How it was run: as §2

southern crabgrass [27] = assay: Test Example 4: herbicidal effect by soil treatment (Table 19, symbol F); assay type: in vivo, southern crabgrass (Digitaria ciliaris); conditions: amount of applied herbicide 320 g/ha
How it was run: as §1

[28] = amount of applied herbicide 320 g/ha

Compound	O: lambsquarters, herbicidal effect rating (lambsquarters [1])	herbicidal effect on I: wild oat (wild oat [2])	herbicidal effect on F: southern crabgrass (southern crabgrass [3])	herbicidal effect on G: green foxtail (green foxtail [4])	J: blackgrass, herbicidal effect rating (blackgrass [5])	G: green foxtail, herbicidal effect rating (green foxtail [6])	herbicidal effect on L: windgrass (windgrass [7])	herbicidal effect on M: velvetleaf (velvetleaf [8])	herbicidal effect on Q: false cleavers (false cleavers [9])	herbicidal effect on K: Italian ryegrass (Italian ryegrass [10])	herbicidal effect on O: lambsquarters (lambsquarters [11])	I: wild oat, herbicidal effect rating (wild oat [12])	herbicidal effect on P: chickweed (chickweed [13])	Q: false cleavers, herbicidal effect rating (false cleavers [14])	R: persian speedwell, herbicidal effect rating (persian speedwell [15])	M: velvetleaf, herbicidal effect rating (velvetleaf [16])	herbicidal effect on R: persian speedwell (persian speedwell [17])	herbicidal effect on H: barnyard grass (barnyard grass [18])	L: windgrass, herbicidal effect rating (windgrass [19])	K: Italian ryegrass, herbicidal effect rating (Italian ryegrass [20])	also measured
CCOc1ccccc1-c1sc2ccc(Cl)cc2c1-c1c(O)c(C)nn(C)c1=O [2-105]	4 (Herbicidal rate of 70% or more and less than 90%)	1 (Herbicidal rate of 5% or more and less than 20%)	4 (Herbicidal rate of 70% or more and less than 90%)	0 (Herbicidal rate of 5% or less (almost no effect))	0 (Herbicidal rate of 5% or less (almost no effect))	2 (Herbicidal rate of 20% or more and less than 40%)	0 (Herbicidal rate of 5% or less (almost no effect))	5 (Herbicidal rate of 90% or more (almost completely withered))	5 (Herbicidal rate of 90% or more (almost completely withered))	0 (Herbicidal rate of 5% or less (almost no effect))	3 (Herbicidal rate of 40% or more and less than 70%)	0 (Herbicidal rate of 5% or less (almost no effect))	5 (Herbicidal rate of 90% or more (almost completely withered))	4 (Herbicidal rate of 70% or more and less than 90%)	3 (Herbicidal rate of 40% or more and less than 70%)	3 (Herbicidal rate of 40% or more and less than 70%)	5 (Herbicidal rate of 90% or more (almost completely withered))	0 (Herbicidal rate of 5% or less (almost no effect))	0 (Herbicidal rate of 5% or less (almost no effect))	0 (Herbicidal rate of 5% or less (almost no effect))	herbicidal effect on E (rice flat sedge), rating 0-5 (rice flat sedge; 320 g/ha): 3 (Herbicidal rate of 40% or more and less than 70%); herbicidal effect on D (Chinese sprangletop), rating 0-5 (Chinese sprangletop; 320 g/ha): 0 (Herbicidal rate of 5% or less (almost no effect)); herbicidal effect on N: redroot pigweed (redroot pigweed [21]): 5 (Herbicidal rate of 90% or more (almost completely withered)); P: chickweed, herbicidal effect rating (chickweed [22]): 3 (Herbicidal rate of 40% or more and less than 70%); H: barnyard grass, herbicidal effect rating (barnyard grass [23]): 3 (Herbicidal rate of 40% or more and less than 70%); herbicidal effect on H (barnyard grass), rating 0-5 (barnyard grass [24]; 320 g/ha): 4 (Herbicidal rate of 70% or more and less than 90%); N: redroot pigweed, herbicidal effect rating (redroot pigweed [25]): 5 (Herbicidal rate of 90% or more (almost completely withered)); herbicidal effect on J: blackgrass (blackgrass [26]): 0 (Herbicidal rate of 5% or less (almost no effect)); F: southern crabgrass, herbicidal effect rating (southern crabgrass [27]): 3 (Herbicidal rate of 40% or more and less than 70%)
CCCC(=O)Oc1c(C)nn(C)c(=O)c1-c1c(-c2ccc(OC)c(OC)c2)sc2ccc(Cl)cc12 [2-124]	3 (Herbicidal rate of 40% or more and less than 70%)	0 (Herbicidal rate of 5% or less (almost no effect))	0 (Herbicidal rate of 5% or less (almost no effect))	0 (Herbicidal rate of 5% or less (almost no effect))	0 (Herbicidal rate of 5% or less (almost no effect))	0 (Herbicidal rate of 5% or less (almost no effect))	0 (Herbicidal rate of 5% or less (almost no effect))	1 (Herbicidal rate of 5% or more and less than 20%)	0 (Herbicidal rate of 5% or less (almost no effect))	0 (Herbicidal rate of 5% or less (almost no effect))	0 (Herbicidal rate of 5% or less (almost no effect))	0 (Herbicidal rate of 5% or less (almost no effect))	2 (Herbicidal rate of 20% or more and less than 40%)	0 (Herbicidal rate of 5% or less (almost no effect))	0 (Herbicidal rate of 5% or less (almost no effect))	0 (Herbicidal rate of 5% or less (almost no effect))	5 (Herbicidal rate of 90% or more (almost completely withered))	0 (Herbicidal rate of 5% or less (almost no effect))	0 (Herbicidal rate of 5% or less (almost no effect))	0 (Herbicidal rate of 5% or less (almost no effect))	herbicidal effect on E: rice flat sedge (rice flat sedge; [28]): 0 (Herbicidal rate of 5% or less (almost no effect)); herbicidal effect on D: Chinese sprangletop (Chinese sprangletop; [28]): 1 (Herbicidal rate of 5% or more and less than 20%); herbicidal effect on N: redroot pigweed (redroot pigweed [21]): 2 (Herbicidal rate of 20% or more and less than 40%); P: chickweed, herbicidal effect rating (chickweed [22]): 0 (Herbicidal rate of 5% or less (almost no effect)); H: barnyard grass, herbicidal effect rating (barnyard grass [23]): 0 (Herbicidal rate of 5% or less (almost no effect)); herbicidal effect on H: barnyard grass (barnyard grass [24]; [28]): 3 (Herbicidal rate of 40% or more and less than 70%); N: redroot pigweed, herbicidal effect rating (redroot pigweed [25]): 0 (Herbicidal rate of 5% or less (almost no effect)); herbicidal effect on J: blackgrass (blackgrass [26]): 0 (Herbicidal rate of 5% or less (almost no effect)); F: southern crabgrass, herbicidal effect rating (southern crabgrass [27]): 1 (Herbicidal rate of 5% or more and less than 20%)
